From patent publication US12186318B2, “Pharmaceutical composition for preventing or treating cancer comprising KSP inhibitor and mitosis inhibitor” (KOREA INSTITUTE OF SCIENCE AND TECHNOLOGY, priority 2020, dated 2025)

Columns and labels:
HeyA8-MDR cancer cells [1] = test: TUNEL assay on tumor tissue of tumor mouse model; assay type: in vivo, BALB/c nude mouse
From the text: The tumor tissue of the respective groups excised in Example 4-2 above was subjected to a TUNEL assay to identify the level of apoptosis in the tumor tissue (FIG. 4I).

HeyA8-MDR cells = test: Anti-cancer activity, MTT cell viability and Bliss independence; assay type: cell-based; details: single agent, 0 to 200 nM liposome or 0 to 2000 nM paclitaxel, 48 hours
Method: The recovered cells were cultured in a fresh medium supplemented with a 10% MTT solution for 3 hours and formazan crystals generated by treatment with a Sorensen's glycine buffer and DMSO was dissolved therein. Thereafter, the absorbance thereof was measured at 570 nm and the cell viability was calculated using the same (FIG. 2G).
The cell viabilities of the cells were compared (FIG. 2H).
In addition, in order to quantitatively analyze a reduction level of the cell viability, the measured absorbance was applied to the following equation to calculate an expected inhibition level of cancer cells, and the obtained expected inhibition level was compared with an observed inhibition level of the cancer cells (FIGS. 2I to 2K). […] Expected inhibition level=FsiKSP-liposome+FPTX−(FsiKSP-liposome×FPTX)
Thereafter, cell viability inhibition levels and expected inhibition levels calculated therefrom were compared with each other (FIG. 2L). […] Expected Inhibition Level=Fa+Fb−(Fa×Fb)

Kif15 mRNA = Kif15 mRNA level in drug-resistant PDX model; assay type: in vivo, mouse; details: relative to control
Method: The levels of Kif15 mRNA expressed in tumor tissue of the respective groups excised in Example 4-4-2 above were measured by qRT-PCR as an application method of that of Example 3-3 (FIG. 5E).

drug-resistant PDX model = test: TUNEL assay on tumor-implanted kidney tissue of drug-resistant PDX model; assay type: in vivo, mouse
From the text: The tumor-implanted kidney tissue of the respective groups excised in Example 4-4-2 above was subjected to a TUNEL assay to identify the level of apoptosis in the tumor-implanted kidney tissue (FIG. 5H).

Kif15 protein = test: Kif15 expression at the protein level (western blot) in HeyA8-MDR cells; assay type: cell-based; details: 50 nM siKSP and/or 2000 nM PTX, 48 hours
Method: The cells recovered in Example 3-3 above were analyzed by western blotting using an anti-Kif15 antibody (FIG. 2D).

HeyA8-MDR cancer cells [2] = test: Anti-cancer effect in tumor mouse model; assay type: in vivo, BALB/c nude mouse; details: 26 days after injection
Method: First, HeyA8-MDR cancer cells (1×10^8) were injected into the left thigh of a 5-week-old female BALB/c nude mouse, and then left until cancer tissue grew to a volume of about 50 mm3 to prepare 20 tumor mouse xenograft models.
Subsequently, at 26 days after injection of each of the samples, tumor tissue was excised from each tumor mouse model and weighed (FIG. 4B).
In addition, at 26 days after injection of each of the samples, tumor tissue was excised from each tumor mouse model, and tumor growth inhibition (TGI) rate was measured (FIG. 4C).

Kif15 gene = test: Kif15 expression at the gene level (qRT-PCR) in HeyA8-MDR cells; assay type: cell-based; details: 50 nM siKSP and/or 2000 nM PTX, 48 hours
Method: Subsequently, total RNA was obtained respectively from the recovered cells using an RNeasy mini kit (Qiagen, US), cDNA was synthesized from the obtained total RNA using a TOPscript cDNA synthesis kit (Enzynomics, Korea), and PCR was performed using a StepOne qRT-PCR system (Thermo Fisher scientific) and primers specific to a Kif15 gene (SEQ ID NOS: 7 and 8) or primers specific to a β-actin gene (SEQ ID NOS: 5 and 6).
Thereafter, the levels of the amplified products obtained from the PCR were measured, and the measured levels were standardized with respect to an expression amount of β-actin, and then relative levels of Kif15 mRNA was calculated (FIG. 2C).

## CC(=O)O[C@H]1C(=O)[C@@]2(C)[C@H]([C@H](OC(=O)c3ccccc3)[C@]3(O)C[C@H](OC(=O)[C@H](O)[C@@H](NC(=O)c4ccccc4)c4ccccc4)C(C)=C1C3(C)C)[C@]1(OC(C)=O)CO[C@@H]1C[C@@H]2O [paclitaxel]
HeyA8-MDR cancer cells [1]
  apoptosis in tumor tissue (TUNEL): not induced or induced in a low level
HeyA8-MDR cells
  cell viability with increasing concentration: decreases
Kif15 mRNA
  Kif15 mRNA level in tumor-implanted kidney tissue: decreased
drug-resistant PDX model
  apoptosis in tumor-implanted kidney tissue (TUNEL): not induced or induced in a low level
Kif15 protein
  level of the Kif15 protein: decreased
HeyA8-MDR cancer cells [2]
  tumor growth inhibition (TGI) rate: about 13.1%
Kif15 gene
  expression level of the Kif15 gene: inhibited
